Results reported in US20160257651A1, “NOVEL COMPOUND WITH ANTIBACTERIAL ACTIVITY” (priority 2013, published 2016).
≈ marks a conversion by molar mass, not a printed value. Read-outs that look alike come from different tables or passages of the source.

What was measured:
[1] = tested on: S. aureus FDA209P (ATCC 6538P); experiment: microbe, parasite or virus in culture; assay type: cell-based, Staphylococcus aureus; conditions: quinolone-susceptible MSSA, ParC 80S, GyrA 84S
Procedure: (§1) Then, the cell suspension was diluted 500 times with CAMHB mentioned above.

S. aureus Mu50 = experiment: microbe, parasite or virus in culture; assay type: cell-based, Staphylococcus aureus; conditions: for MIC ratio (Mu50 MIC/FDA209P MIC): MIC for S. aureus Mu50 / MIC for S. aureus FDA209P; for MIC: S. aureus Mu50, quinolone-resistant MRSA, ParC S80F, GyrA S84L
Procedure: as §1

E. faecalis NCTC12201 = experiment: MIC against Enterococcus bacteria; assay type: cell-based; conditions: quinolone-susceptible
Procedure: (§2) Antibacterial activities of the compound J-131CP against Enterococcus bacteria (Enterococcus faecium and Enterococcus faecalis) were examined by the following methods.
(§3) The compound J-131CP and quinolones were prepared in the same manner as that of Test Example 1-1.
(§4) Cell suspensions were prepared in the same manner as that of Test Example 1-1 described in the section of measurement of MIC in Test Example 1-1, except that the Enterococcus bacterium strains mentioned in Table 8 were used instead of Staphylococcus aureus, and MICs of the compound J-131CP and quinolones as control were determined for the strains in the same manner as that of Test Example 1-1 described in the section of measurement of MIC in Test Example 1-1. In Table 8, the amino acid substitution mutations in QRDR of the strains are underlined.

E. faecium RPR2 = experiment: MIC against Enterococcus bacteria; assay type: cell-based, Enterococcus faecium
Procedure: as §2, §3, §4

E. faecium NCTC12202 = experiment: MIC against Enterococcus bacteria; assay type: cell-based, Enterococcus faecium
Procedure: as §2, §3, §4

E. faecalis 36-15722 = experiment: MIC against Enterococcus bacteria; assay type: cell-based, Enterococcus faecalis; conditions: E. faecalis 36-15722, quinolone-resistant, ParC 80Ile, GyrA 84Ile
Procedure: as §2, §3, §4

S. pneumoniae BCLSP37 = experiment: MIC against pneumococcus, CAMHB with 5 mass % LHB; assay type: cell-based, Streptococcus pneumoniae; conditions: quinolone-resistant, ParC 79Phe, GyrA 85Lys
Procedure: (§5) The S. pneumoniae strains used for this test belong to any one of the categories of penicillin-susceptible pneumococcus (penicillin-susceptible Streptococcus pneumoniae, PSSP), penicillin-intermediate pneumococcus (penicillin-intermediate Streptococcus pneumoniae, PISP), and penicillin-resistant pneumococcus (penicillin-resistant Streptococcus pneumoniae, PRSP).
(§6) The lysed horse blood was prepared by adding sterilized water to horse sterile defibered blood (produced by Nippon Bio-Supp. Center) at a ratio of 1:1, subjecting the mixture to freezing and thawing 5 times, then centrifuging the mixture twice at 10,000 rpm for 20 minutes, and filtering the supernatant through a filter.
(§7) The S. pneumoniae strains mentioned in Table 11 were each cultured overnight at 37° C. on a blood agar medium as stationary culture. The blood agar medium was prepared by adding 5 mass % ovine sterile defibered blood (produced by Nippon Bio-Supp. Center) to a heart infusion agar medium (produced by EIKEN CHEMICAL). Each S. pneumoniae strain cultured overnight at 37° C. as stationary culture was further subcultured overnight at 37° C. on fresh blood agar medium as stationary culture. After completion of the culture, cells of each pneumococcus strain were collected with a swab, and suspended in physiological saline, and the suspension was adjusted with physiological saline to show absorbance of 0.08 to 0.13 at 625 nm as measured with an absorbance meter (produced by Amersham), and further diluted 200 times with CAMHB containing 5 mass % LHB.
(§8) In Table 11, the amino acid substitution mutations in QRDR of the strains are underlined.

S. pneumoniae KBSP11 = experiment: MIC against pneumococcus, CAMHB with 5 mass % LHB; assay type: cell-based, Streptococcus pneumoniae
Procedure: as §5, §6, §7, §8

E. coli strain 1708 = experiment: Antibacterial activity against Escherichia coli
Description: (§9) The numerical values in the tables indicate MIC (mg/L), Res means resistant bacterium, and Sus means susceptible bacterium.
(§10) Antibacterial activities against Escherichia coli of the compounds shown Table 19 were examined by the following method.
(§11) After completion of the culture, the cells were suspended in fresh TBS to prepare a cell suspension showing an absorbance of 0.3 at 578 nm.

E. coli strain 1709 = experiment: Antibacterial activity against Escherichia coli
Description: as §9, §10, §11

[2] = tested on: E. coli strain 1708 plus PABN; experiment: Antibacterial activity against Escherichia coli in combination with efflux pump inhibitor PAβN; conditions: E coli plus PABN 40 mg/L, strain 1708, Quinolone Res
Description: as §9, §10, §11

[3] = tested on: E. coli strain 1709 plus PABN; experiment: as above; conditions: E coli plus PABN 40 mg/L, strain 1709, Quinolone Sus
Description: as §9, §10, §11

[4] = Staphylococcus aureus, ATCC 6538P / FDA209P / MSSA, read-out: MIC
[5] = Enterococcus faecalis, NCTC 12201 / VRE
[6] = Enterococcus faecium, NCTC 12202 / VRE
[7] = Enterococcus faecalis, 3615722, read-out: MIC
[8] = Streptococcus pneumoniae, BCLSP37, S. pneumoniae BCLSP37, PSSP, read-out: MIC

SMILES | MIC [1, 4] [µg/mL] | MIC ratio (Mu50 MIC/FDA209P MIC) (S. aureus Mu50) | MIC (S. aureus Mu50; Staphylococcus aureus, MRSA) [µg/mL] | MIC (E. faecalis NCTC12201; [5]) [µg/mL] | MIC (E. faecium RPR2; Enterococcus faecium, RPR2) [µg/mL] | MIC (E. faecium NCTC12202; [6]) [µg/mL] | MIC (E. faecalis 36-15722; [7]) [µg/mL] | MIC (S. pneumoniae BCLSP37; [8]) [µg/mL] | MIC (S. pneumoniae KBSP11; Streptococcus pneumoniae, PRSP) [µg/mL] | MIC (E. coli strain 1708) [µg/mL] | MIC (E. coli strain 1709) [µg/mL] | MIC [2] [µg/mL] | MIC [3] | other results
Nc1ccc(-c2cc3c(cc2F)c(CO)cc(=O)n3C2CC2)cc1 [J-132CP, 7-(4-aminophenyl)-1-cyclopropyl-6-fluoro-4-(hydroxymethyl)hydroquinolin-2-one] | 0.5 (≈ 1.54 µM) | 1 | 0.5 (≈ 1.54 µM) | 2 (≈ 6.17 µM) | 8 (≈ 24.7 µM) | 16 (≈ 49.3 µM) | 2 (≈ 6.17 µM) | 4 (≈ 12.3 µM) | 2 (≈ 6.17 µM) | – | – | – | – | –
NCc1cc(=O)n(C2CC2)c2cc(-c3ccc(O)cc3)c(F)cc12 [J-139, 4-(aminomethyl)-1-cyclopropyl-6-fluoro-7-(4-hydroxyphenyl)hydroquinolin-2-one] | 0.5 (≈ 1.54 µM) | 1 | 0.5 (≈ 1.54 µM) | 1 (≈ 3.08 µM) | 8 (≈ 24.7 µM) | 8 (≈ 24.7 µM) | 4 (≈ 12.3 µM) | 4 (≈ 12.3 µM) | 1 (≈ 3.08 µM) | – | – | – | – | –
CC1NCc2cc(-c3cc4c(cc3F)c(CO)cc(=O)n4C3CC3)ccc21 (stereo not shown) [J-144, 1-cyclopropyl-6-fluoro-4-(hydroxymethyl)-7-(1-methylisoindolin-5-yl)hydroquinolin-2-one] | 0.5 (≈ 1.37 µM) | 2 | 1 (≈ 2.74 µM) | 0.5 (≈ 1.37 µM) | 4 (≈ 11 µM) | 8 (≈ 22 µM) | 0.5 (≈ 1.37 µM) | 0.5 (≈ 1.37 µM) | 0.25 (≈ 0.686 µM) | – | – | – | – | –
CC1COc2c(-c3ccc(O)cc3)c(F)cc3c(CO)cc(=O)n1c23 (stereo not shown) [J-149, 9-fluoro-7-(hydroxymethyl)-10-(4-hydroxyphenyl)-3-methyl-2H-[1,4]oxazino[2,3,4-ij]quinolin-5(3H)-one] | 0.5 (≈ 1.46 µM) | 1 | 0.5 (≈ 1.46 µM) | 0.5 (≈ 1.46 µM) | 16 (≈ 46.9 µM) | 128 (≈ 375 µM) | 0.5 (≈ 1.46 µM) | 8 (≈ 23.4 µM) | 4 (≈ 11.7 µM) | – | – | – | – | –
O=c1cc(CO)c2ccc(-c3ccc(O)cc3)c(F)c2n1C1CC1 [J-154, 1-cyclopropyl-8-fluoro-4-(hydroxymethyl)-7-(4-hydroxyphenyl)hydroquinolin-2-one] | 0.5 (≈ 1.54 µM) | 0.5 | 0.25 (≈ 0.768 µM) | 4 (≈ 12.3 µM) | 8 (≈ 24.6 µM) | 16 (≈ 49.2 µM) | 2 (≈ 6.15 µM) | 8 (≈ 24.6 µM) | 8 (≈ 24.6 µM) | – | – | – | – | –
O=c1cc(CO)c2cc(F)c(-c3ccc(O)cc3)c(F)c2n1C1CC1 [J-155] | 0.25 (≈ 0.728 µM) | – | 0.13 (≈ 0.379 µM) | 1 (≈ 2.91 µM) | 8 (≈ 23.3 µM) | 16 (≈ 46.6 µM) | 1 (≈ 2.91 µM) | 1 (≈ 2.91 µM) | 12 (≈ 35 µM) | 128 (≈ 373 µM) | 8 (≈ 23.3 µM) | 0.5 | ≦0.06 mg/L | –
COc1c(-c2ccc(O)cc2)c(F)cc2c(CO)cc(=O)n(C3CC3)c12 [J-156] | 0.5 (≈ 1.41 µM) | – | 0.5 (≈ 1.41 µM) | 2 (≈ 5.63 µM) | – | – | 2 (≈ 5.63 µM) | 2 (≈ 5.63 µM) | 4 (≈ 11.3 µM) | 128 (≈ 360 µM) | 128 (≈ 360 µM) | 2 | 0.1 µg/mL | –
O=c1cc(CO)c2cc(F)c(-c3ccc(O)cc3)c(Cl)c2n1C1CC1 [J-161] | 0.25 (≈ 0.695 µM) | – | 0.5 (≈ 1.39 µM) | 1 (≈ 2.78 µM) | 8 (≈ 22.2 µM) | 16 (≈ 44.5 µM) | 1 (≈ 2.78 µM) | 4 (≈ 11.1 µM) | 2 (≈ 5.56 µM) | 128 (≈ 356 µM) | 16 (≈ 44.5 µM) | 1 | 0.13 µg/mL | –
Nc1ccc(-c2cc3c(cc2F)c(CO)cc(=O)n3C2CC2)cc1 [J-166] | – | – | – | – | – | – | – | – | – | 128 (≈ 395 µM) | 8 (≈ 24.7 µM) | 0.5 | ≦0.06 mg/L | MIC [1]: 1 µg/mL (≈ 3.08 µM); MIC (S. aureus Mu50): 1 µg/mL (≈ 3.08 µM); MIC (E. faecalis NCTC12201; E. faecalis NCTC12201, VRE): 1 µg/mL (≈ 3.08 µM); MIC (E. faecium RPR2; E. faecium RPR2, quinolone-resistant, ParC 82Ile, GyrA 84Ile 88Lys): 8 µg/mL (≈ 24.7 µM); MIC (E. faecium NCTC12202; E. faecium NCTC12202, VRE, quinolone-susceptible): 16 µg/mL (≈ 49.3 µM); MIC (E. faecalis 36-15722): 2 µg/mL (≈ 6.17 µM); MIC (S. pneumoniae BCLSP37; S. pneumoniae BCLSP37, PSSP): 2 µg/mL (≈ 6.17 µM); MIC (S. pneumoniae KBSP11; S. pneumoniae KBSP11, PRSP, quinolone-susceptible): 2 µg/mL (≈ 6.17 µM)
O=c1cc(CO)c2cc(F)c(-c3ccccc3)cc2n1C1CC1 [J-168] | 2 (≈ 6.47 µM) | – | 2 (≈ 6.47 µM) | – | – | – | – | – | – | 128 (≈ 414 µM) | 16 (≈ 51.7 µM) | 0.5 | ≦0.06 mg/L | –
NOCc1cc(=O)n(C2CC2)c2cc(-c3ccc(O)cc3)c(F)cc12 [J-174] | 2 (≈ 5.88 µM) | – | 1 (≈ 2.94 µM) | 4 (≈ 11.8 µM) | – | – | 8 (≈ 23.5 µM) | – | – | 128 (≈ 376 µM) | 64 (≈ 188 µM) | 4 | 0.5 µg/mL | –
O=c1cc(CO)c2cc(F)c(-c3ccc(O)c(O)c3)cc2n1C1CC1 [J-176] | 2 (≈ 5.86 µM) | – | 1 (≈ 2.93 µM) | 2 (≈ 5.86 µM) | 4 (≈ 11.7 µM) | 8 (≈ 23.4 µM) | 2 (≈ 5.86 µM) | 8 (≈ 23.4 µM) | 4 (≈ 11.7 µM) | 128 (≈ 375 µM) | 32 (≈ 93.7 µM) | – | – | –
